From patent US20100168100A1, “QUINOLINE DERIVATIVES AS P13 KINASE INHIBITORS” (SMITHKLINE BEECHAM CORPORATION, priority 2007, published 2010)

Tests used:
PI3Kα = biological target: T1, PI3Kα (Homo sapiens, UniProt P42336); test: PI3K Alpha Leadseeker SPA Assay; assay type: biochemical; conditions: in at least one experimental run; read-out: IC50 against PI3Kα
T1 construct: His
Protocol: PI3K Alpha Leadseeker SPA Assay
Compounds of the present invention were tested according to the following assays and found as inhibitors of PI3 kinases, particularly PI3Kα. The exemplified compounds were tested and found active against PI3Kα. The IC50's ranged from about 1 nM to 10 μM.
SPA imaging beads are microspheres containing scintillant which emit light in the red region of the visible spectrum. As a result, these beads are ideally suited to use with a CCD imager such as the Viewlux. The Leadseeker beads used in this system are polystyrene beads that have been coupled with polyethyleneimine. When added to the assay mixture, the beads absorb both the substrate (PIP2) and product (PIP3). Adsorbed P^33-PIP3 will cause an increase in signal, measured as ADUs (analog to digital units). This protocol details the use of the PEI-PS Leadseeker beads for assays using His-p110/p85 PI3K alpha.
Solid compounds are typically plated with 0.1 μl of 100% DMSO in all wells (except column 6 and 18) of a 384-well, flat bottom, low volume plate (Greiner 784075). The compounds are serially diluted (3-fold in 100% DMSO) across the plate from column 1 to column 12 and column 13 to column 24 and leave column 6 and 18 containing only DMSO to yield 11 concentrations for each test compound.
The assay buffer contains MOPS (pH 6.5), CHAPS, and DTT. PI3K alpha and PIP2 (L-alpha-D-myo-Phosphatidylinositol 4,5-bisphosphate [PI(4,5)P2]3-O-phospho linked, D(+)-sn-1,2-di-O-octanoylglyceryl, CellSignals #901) are mixed and incubated in the plate with compound for 30 min prior to starting the reaction with the addition of P^33-ATP and MgCl2 (reagents added using Zoom). Enzyme-free wells (column 18) are typically done to determine the low control. PEI-PS Leadseeker beads in PBS/EDTA/CHAPS are added (by Multidrop) to quench the reaction, and the plates are allowed to incubate for at least one hour (typically overnight) before centrifugation. The signal is determined using a Viewlux detector and is then imported into curve fitting software (Activity Base) for construction of concentration response curves. The percent inhibition of activity is calculated relative to high controls (C1, 0.1 μl DMSO in column 6, rows A-P)) and low controls (C2, 5 μl of 40 uM PIP2 in buffer in column 18, rows A-P) using, 100*(1-(U1-C2)/(C1-C2)). The concentration of test compound yielding 50% inhibition is determined using the equation, y=((Vmax*x)/(K+x))+Y2, where “K” is equal to the IC50. The IC50 values are converted to pIC50 values, i.e., −log IC50 in Molar concentration.

CK2 protein kinase = CK2 protein kinase (Homo sapiens, UniProt P68400); conditions: cited from earlier work
Sequence of CK2 protein kinase (P68400 whole entry): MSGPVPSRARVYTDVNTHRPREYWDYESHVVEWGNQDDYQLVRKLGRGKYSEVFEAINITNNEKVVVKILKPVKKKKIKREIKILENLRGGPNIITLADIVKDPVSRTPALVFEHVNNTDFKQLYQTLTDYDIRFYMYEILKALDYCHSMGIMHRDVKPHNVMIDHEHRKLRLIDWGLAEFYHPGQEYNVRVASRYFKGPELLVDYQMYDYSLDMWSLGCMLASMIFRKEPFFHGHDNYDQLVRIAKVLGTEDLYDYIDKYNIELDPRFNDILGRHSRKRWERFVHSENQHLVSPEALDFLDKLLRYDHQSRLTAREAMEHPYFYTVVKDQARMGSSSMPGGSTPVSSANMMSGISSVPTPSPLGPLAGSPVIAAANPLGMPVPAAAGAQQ

T1 sequence (P42336 whole entry): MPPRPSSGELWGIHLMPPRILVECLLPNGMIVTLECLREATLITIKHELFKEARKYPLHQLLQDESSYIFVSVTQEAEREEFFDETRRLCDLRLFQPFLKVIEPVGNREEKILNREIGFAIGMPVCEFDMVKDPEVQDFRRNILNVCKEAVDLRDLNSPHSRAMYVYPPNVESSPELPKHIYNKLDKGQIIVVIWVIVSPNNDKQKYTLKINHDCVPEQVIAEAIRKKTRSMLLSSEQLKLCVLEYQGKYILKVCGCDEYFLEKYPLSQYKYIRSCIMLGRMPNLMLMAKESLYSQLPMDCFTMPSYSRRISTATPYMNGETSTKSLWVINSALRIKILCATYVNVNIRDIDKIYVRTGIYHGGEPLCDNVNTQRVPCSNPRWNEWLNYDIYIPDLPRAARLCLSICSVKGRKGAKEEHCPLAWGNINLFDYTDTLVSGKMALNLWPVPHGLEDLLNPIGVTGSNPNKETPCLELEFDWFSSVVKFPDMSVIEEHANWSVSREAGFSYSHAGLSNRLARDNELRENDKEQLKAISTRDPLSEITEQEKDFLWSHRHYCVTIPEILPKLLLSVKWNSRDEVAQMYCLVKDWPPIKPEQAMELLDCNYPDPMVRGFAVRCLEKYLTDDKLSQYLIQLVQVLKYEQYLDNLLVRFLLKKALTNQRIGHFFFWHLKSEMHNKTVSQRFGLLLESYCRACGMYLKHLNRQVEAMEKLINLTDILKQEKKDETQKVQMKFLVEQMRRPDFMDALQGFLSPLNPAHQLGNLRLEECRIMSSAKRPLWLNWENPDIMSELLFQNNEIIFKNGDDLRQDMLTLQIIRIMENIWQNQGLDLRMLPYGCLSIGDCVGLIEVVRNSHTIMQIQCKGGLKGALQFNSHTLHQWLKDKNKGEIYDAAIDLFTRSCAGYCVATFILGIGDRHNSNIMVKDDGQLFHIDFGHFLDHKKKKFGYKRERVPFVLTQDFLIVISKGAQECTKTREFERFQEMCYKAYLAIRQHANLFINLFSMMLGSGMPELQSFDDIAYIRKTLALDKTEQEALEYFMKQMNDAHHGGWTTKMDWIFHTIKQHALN
T1 sequence (P27986 whole entry partner): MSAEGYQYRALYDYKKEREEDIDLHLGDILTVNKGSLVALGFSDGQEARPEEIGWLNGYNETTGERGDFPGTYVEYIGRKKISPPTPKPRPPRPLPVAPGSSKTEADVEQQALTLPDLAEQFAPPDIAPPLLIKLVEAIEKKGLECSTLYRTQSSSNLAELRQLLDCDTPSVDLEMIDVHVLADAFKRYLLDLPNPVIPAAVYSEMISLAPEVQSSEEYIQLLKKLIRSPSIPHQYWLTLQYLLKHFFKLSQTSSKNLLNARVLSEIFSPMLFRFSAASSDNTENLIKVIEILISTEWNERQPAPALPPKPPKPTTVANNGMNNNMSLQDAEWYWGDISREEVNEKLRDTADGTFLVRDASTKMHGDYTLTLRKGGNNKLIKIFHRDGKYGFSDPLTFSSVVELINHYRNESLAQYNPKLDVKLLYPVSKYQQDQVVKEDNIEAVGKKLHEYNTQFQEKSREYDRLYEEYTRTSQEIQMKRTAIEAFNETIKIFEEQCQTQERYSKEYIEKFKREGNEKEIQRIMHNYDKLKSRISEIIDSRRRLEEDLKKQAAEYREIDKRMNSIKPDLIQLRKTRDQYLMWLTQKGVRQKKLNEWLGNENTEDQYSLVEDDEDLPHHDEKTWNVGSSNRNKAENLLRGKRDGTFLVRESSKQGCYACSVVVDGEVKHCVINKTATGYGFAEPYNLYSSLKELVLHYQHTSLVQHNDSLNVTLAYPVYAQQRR

Row | SMILES | IC50 (PI3Kα) | IC50 (CK2 protein kinase)
1 | CC1=Nc2ccc(-c3ccc4nccc(-c5ccncc5)c4c3)cc2S(=O)(=O)N1 [Example 154] | 0.316 µM | –
2 | c1cc(-c2ccnc3ccc(-c4ccc5[nH]ncc5c4)cc23)ccn1 [Example 156] | 0.079 µM | –
3 | c1cc(-c2ccnc3ccc(-c4nc5ncncc5[nH]4)cc23)ccn1 [Example 224] | 1 µM | –
4 | NC(=O)Cn1cc(-c2ccnc3ccc(-c4cncc(S(=O)(=O)Nc5ccc(F)cc5F)c4)cc23)cn1 [Example 263] | 0.0079 µM | –
5 | O=c1cc(N2CCOCC2)oc2c(-c3ccccc3)cccc12 [LY294002] | – | 5 to 10 µM

Second part, led by results:

Row | IC50 (PI3Kα) | SMILES | IC50 (CK2 protein kinase)
6 | 0.0016 µM | O=S(=O)(Nc1cc(-c2ccc3nccc(-c4ccncc4)c3c2)c[n+]([O-])c1Cl)c1ccccc1 [Example 249] | –
7 | 0.0008 µM | Cc1ccccc1S(=O)(=O)Nc1cc(-c2ccc3nccc(-c4ccncc4)c3c2)cnc1Cl [Example 252] | –
8 | 0.0025 µM | COc1ncc(-c2ccc3nccc(C4CCCC4)c3c2)cc1NS(=O)(=O)c1ccccc1 [Example 289] | –
